Results on 18 compounds are retold here after publication PMC11246588, “New 1,2,4-oxadiazole derivatives as potential multifunctional agents for the treatment of Alzheimer’s disease: design, synthesis, and biological evaluation” (BMC Chemistry, 2024).

The target of one test is T1, MAO-B (Homo sapiens, UniProt P27338).
T1 construct: purchased Sigma M7441
T1 sequence (P27338 1-520): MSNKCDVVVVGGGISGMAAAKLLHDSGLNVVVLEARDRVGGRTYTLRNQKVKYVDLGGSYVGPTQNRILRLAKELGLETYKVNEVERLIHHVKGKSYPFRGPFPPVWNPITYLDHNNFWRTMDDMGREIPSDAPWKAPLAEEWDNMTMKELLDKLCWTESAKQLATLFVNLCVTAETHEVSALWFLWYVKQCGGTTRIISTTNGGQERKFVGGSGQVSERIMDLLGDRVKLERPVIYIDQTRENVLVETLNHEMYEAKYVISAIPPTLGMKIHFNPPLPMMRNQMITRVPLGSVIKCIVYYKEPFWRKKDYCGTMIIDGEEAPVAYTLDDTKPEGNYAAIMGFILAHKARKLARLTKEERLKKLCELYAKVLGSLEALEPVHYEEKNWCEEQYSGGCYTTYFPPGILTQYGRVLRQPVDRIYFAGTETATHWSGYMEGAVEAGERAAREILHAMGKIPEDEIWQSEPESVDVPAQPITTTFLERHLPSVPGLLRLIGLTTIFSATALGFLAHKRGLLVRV
The experiment in a line: MAO-B inhibitory assay. Type of test: biochemical.

For test [1], the system named is human red blood cells (HRBCs). The test can be described thus: Anti-hemolytic effect (hypotonic solution-induced human erythrocyte hemolysis). Type of test: cell-based. The following applies: read-out: Hemolysis-IC50 (µM ± SD). The procedure: The inhibition of human red blood cells (HRBCs) membrane lysis under […] conditions was taken as a measure of the mechanism of anti-hemolytic activity of the synthesized 1,2,4-oxadiazole-based derivatives. […]
The test carried out triplicate. […]
It was calculated by interpolation from the graph of inhibition percentage against sample concentration using linear regression equations.
The Inhibition percentage was calculated. IC50 value is the […]
centrifugation each time for 10 min at 3000 ×g. […]
solution-induced human erythrocyte hemolysis. […]
consisted of 0.5 mL of RBCs mixed with hypotonic-buffered saline solution alone. The mixtures were incubated for 10 min at room temperature and centrifuged for 10 min at 3000 ×g and the absorbance of the supernatant was measured at 540 nm using optima spectrophotometer. The test carried out triplicate. Inhibition of hemolysis percentages were calculated. Inhibition of hemolysis activity was expressed as IC50.

Test [2] is described as follows: DPPH radical scavenging activity. The following applies: means of three replicates; N.A. means no activity; read-out: DPPH-IC50 (µM ± SD). For orientation: The DPPH test is a chemical assay of radical scavenging.
A further test addresses T2, AChE (Homo sapiens, UniProt P22303).
T2 construct: from tissue; host or cells: brain homogenate supernatant
The test can be described thus: AChE inhibitory assay (Ellman-type, brain homogenate supernatant). Type of test: biochemical. The note with it: for AChE-IC50 (µM ± SD) / IC50: means of three replicates, N.A. means no activity; for IC50: read-out: AChE-IC50 (µM ± SD); for AChE Selectivity Index: IC50 of BuChE/ IC50 of AChE. The procedure:
The results, which are shown in Table 1, are graphically represented in Figs. 2 and 3. […]
3.1. AChE and BuChE inhibitory assays
In ELISA plate (Bio Tec. USA), 150 μL of phosphate buffer was directly added in ELISA blank well and 130 μL of phosphate buffer was added in ELISA activity wells. To the blank and activity wells, 5 μL of substrate ACTI was added, then 20 μL brain homogenate supernatant was added in activity ELISA wells only. The plate was preincubated for 15 min at 37 °C before the addition of the second substrate (DTNB). DTNB (60 μL) was added in both the blank and activity wells. Absorbance was […]
Values obtained were analyzed and blank reading was subtracted from sample readings. The AChE and BuChE inhibition activity of tested compound was expressed as IC 50. IC50 value is the inhibitory concentration at which 50% of AChE or BuChE is repressed. […]
sample concentration using linear regression equations.

The target of the next test is T3, MAO-A (Homo sapiens, UniProt P21397).
T3 sequence (P21397 1-527): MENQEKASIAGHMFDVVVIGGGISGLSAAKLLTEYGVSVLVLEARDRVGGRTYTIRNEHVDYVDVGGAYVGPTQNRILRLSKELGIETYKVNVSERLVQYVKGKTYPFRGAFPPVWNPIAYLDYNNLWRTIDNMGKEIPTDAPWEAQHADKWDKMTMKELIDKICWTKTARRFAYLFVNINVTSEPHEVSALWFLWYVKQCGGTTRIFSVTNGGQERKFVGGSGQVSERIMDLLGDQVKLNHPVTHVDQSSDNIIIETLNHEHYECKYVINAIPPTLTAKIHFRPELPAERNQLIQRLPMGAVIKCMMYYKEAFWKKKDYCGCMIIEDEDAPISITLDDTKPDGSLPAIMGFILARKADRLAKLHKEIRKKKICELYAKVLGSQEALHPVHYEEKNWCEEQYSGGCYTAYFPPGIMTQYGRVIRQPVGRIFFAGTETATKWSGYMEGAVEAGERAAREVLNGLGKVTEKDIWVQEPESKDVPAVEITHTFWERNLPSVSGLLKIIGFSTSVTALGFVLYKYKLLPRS
The test can be described thus: biochemical.

The mark [3] stands for this setting: inhibition of induced HRBC membrane lysis, means of three replicates.

SMILES strings stand for the structures. Counter-ions that a name gives are not always drawn. Like-named read-outs stand apart in the source and are kept apart here.

T2 sequence (P22303 32-614): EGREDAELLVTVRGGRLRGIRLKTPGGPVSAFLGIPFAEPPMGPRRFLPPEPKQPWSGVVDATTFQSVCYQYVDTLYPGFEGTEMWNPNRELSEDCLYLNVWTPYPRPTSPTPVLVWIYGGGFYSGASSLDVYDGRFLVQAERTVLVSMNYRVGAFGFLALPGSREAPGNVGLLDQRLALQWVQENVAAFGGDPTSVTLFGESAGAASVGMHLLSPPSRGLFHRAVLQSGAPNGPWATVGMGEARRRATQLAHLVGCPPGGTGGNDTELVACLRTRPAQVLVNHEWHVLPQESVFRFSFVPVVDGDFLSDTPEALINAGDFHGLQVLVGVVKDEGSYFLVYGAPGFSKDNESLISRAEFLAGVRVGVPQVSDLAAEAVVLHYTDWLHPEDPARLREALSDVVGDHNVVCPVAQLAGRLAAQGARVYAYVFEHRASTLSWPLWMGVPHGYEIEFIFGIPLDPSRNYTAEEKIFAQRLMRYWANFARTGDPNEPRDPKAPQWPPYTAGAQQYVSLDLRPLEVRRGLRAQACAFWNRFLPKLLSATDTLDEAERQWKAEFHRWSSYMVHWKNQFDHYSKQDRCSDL
Procedure for MAO-A: The MAO-B and MAO-A inhibitory potentials of all the synthesized 1,2,4-oxadiazole-based derivatives were evaluated. Biperiden and methylene blue (methylthioninium chloride) were used as the reference standards.
In test tube, 150 µL of 20 nM of MAO-A or MAO-B (M7441, Sigma), 150 µL of tested compound serial dilutions (0, 0.1,
0.25, 0.5,1 and 2 mg/mL), 133 µL potassium phosphate buffer and 667 µL of or benzylamine (5µM) were mixed well.
absorbance was measured at 250 nm against air after 30 s and 90 s. The Inhibition percentage was calculated.
inhibitory concentration at which 50% of MAO -A or MAO-B is repressed.

As for `OC(CCN1CCCCC1)(c1ccccc1)C1CC2C=CC1C2` (stereo not shown) [Biperiden HCl, reference compound], on MAO-B (means of three replicates, N.A. means no activity, read-out: MAO-B-IC50 (µM ± SD)), the IC50 – broadly, the midpoint of a concentration-inhibition curve – came to 238 ± 16.3 µM.
In the case of `NNC(=O)COc1ccccc1-c1nc(-c2ccccc2)no1` [Compound 1a], the concentration for half-maximal inhibition (IC50) in test [1] (setting [3]) was 1620 ± 57.8 µM; in test [2], 1220 ± 51.3 µM; against MAO-B, 359 ± 23.4 µM; on MAO-A it was 47.2 ± 8.1 µM. At AChE, the “AChE-IC50 (µM ± SD)” value is given as “nonexistent efficacy”.
For the compound `NNC(=O)COc1ccccc1-c1nc(Cc2ccccc2)no1` [Compound 1b], the 50% inhibitory concentration (IC50) in test [1] (setting [3]) stood at 1190 ± 78.3 µM; in test [2] it was 1280 ± 42.8 µM; at AChE, 0.031 ± 0.0024 µM; at MAO-B, 535 ± 41.5 µM; against MAO-A it was 82.5 ± 8.7 µM.
With `NNC(=O)COc1ccccc1-c1nc(-c2ccc(C(F)(F)F)cc2)no1` [Compound 1c], the IC50 was 657 ± 33.1 µM in test [1] (setting [3]), 735 ± 12.8 µM in test [2], 397 ± 19.6 µM at MAO-B and 147 ± 16.9 µM against MAO-A. The “AChE-IC50 (µM ± SD)” value at AChE is listed as “nonexistent efficacy”.
On to `O=C(COc1ccccc1-c1nc(-c2ccccc2)no1)N/N=C\c1ccccc1[N+](=O)[O-]` [Compound 2a, (E/Z)-N’-(2-Nitrobenzylidene)-2-(2-(3-phenyl-1,2,4-oxadiazol-5-yl)phenoxy)acetohydrazide], for which the half-maximal inhibitory concentration (IC50) in test [1] (setting [3]) stood at 1790 ± 63.1 µM; in test [2], 1310 ± 31.5 µM; at AChE, 0.0339 ± 0.0029 µM.
For `O=C(COc1ccccc1-c1nc(Cc2ccccc2)no1)N/N=C\c1ccccc1[N+](=O)[O-]` [Compound 2b, (E/Z)-2-(2-(3-Benzyl-1,2,4-oxadiazol-5-yl)phenoxy)-N’-(2-nitrobenzylidene)acetohydrazide], the concentration for half-maximal inhibition (IC50) was determined as 4100 ± 114 µM in test [1] (setting [3]); 991 ± 11.4 µM in test [2]; 0.00098 ± 1e-06 µM on AChE; 346 ± 14.3 µM at MAO-B; 204 ± 17.9 µM against MAO-A. For the same compound, the “AChE Selectivity Index” value at AChE is listed as 36,571.
Take `O=C(COc1ccccc1-c1nc(-c2ccc(C(F)(F)F)cc2)no1)N/N=C\c1ccccc1[N+](=O)[O-]` [Compound 2c, (E/Z)-N’-(2-Nitrobenzylidene)-2-(2-(3-(4-(trifluoromethyl)phenyl)-1,2,4-oxadiazol-5-yl)phenoxy) acetohydrazide]: the IC50 turned out to be 4340 ± 126 µM in test [1] (setting [3]), 464 ± 31.5 µM in test [2], 0.0127 ± 0.00102 µM at AChE and 266 ± 13.4 µM against MAO-B. Also, the “AChE Selectivity Index” value on AChE is 3,100.
As to `O=C(COc1ccccc1-c1nc(-c2ccccc2)no1)N/N=C\c1cnn(-c2ccccc2)n1` [Compound 3a, (E/Z)-2-(2-(3-Phenyl-1,2,4-oxadiazol-5-yl)phenoxy)-N’-((2-phenyl-2 H-1,2,3-triazol-4-yl)methylene) acetohydrazide], the half-maximal inhibitory concentration (IC50) in test [1] (setting [3]) stood at 622 ± 23.4 µM; against MAO-A, 85.2 ± 5.9 µM. For the same compound, the “AChE-IC50 (µM ± SD)” value at AChE is on record as “nonexistent efficacy”.
For `O=C(COc1ccccc1-c1nc(Cc2ccccc2)no1)N/N=C\c1cnn(-c2ccccc2)n1` [Compound 3b, (E/Z)-2-(2-(3-Benzyl-1,2,4-oxadiazol-5-yl)phenoxy)-N’-((2-phenyl-2 H-1,2,3-triazol-4-yl)methylene) acetohydrazide], the half-inhibitory concentration (IC50) in test [1] (setting [3]) was 457 ± 19.6 µM; in test [2] it was 537 ± 19.3 µM; on AChE it was 0.0233 ± 0.00069 µM; on MAO-B it was 140 ± 8.7 µM. Moreover, the “AChE Selectivity Index” value on AChE was 735.
In the case of `O=C(COc1ccccc1-c1nc(-c2ccc(C(F)(F)F)cc2)no1)N/N=C\c1cnn(-c2ccccc2)n1` [Compound 3c, (E/Z)-N’-((2-Phenyl-2 H-1,2,3-triazol-4-yl)methylene)-2-(2-(3-(4-(trifluoromethyl)phenyl)-1,2,4-oxadiazol-5-yl)phenoxy)acetohydrazide], the IC50 in test [1] (setting [3]) amounted to 661 ± 23.8 µM; in test [2] it was 582 ± 42.9 µM; on MAO-A, 115 ± 19.5 µM. Moreover, the “AChE-IC50 (µM ± SD)” value on AChE is listed as “nonexistent efficacy”.
As to `O=C(COc1ccccc1-c1nc(-c2ccccc2)no1)NN1C(=O)c2ccccc2C1=O` [Compound 4a, N-(1,3-Dioxoisoindolin-2-yl)-2-(2-(3-phenyl-1,2,4-oxadiazol-5-yl)phenoxy)acetamide], the half-maximal inhibitory concentration (IC50) in test [1] (setting [3]) amounted to 522 ± 15.9 µM; in test [2], 1660 ± 62.3 µM; on AChE, 0.0328 ± 0.0011 µM; against MAO-B, 394 ± 16.3 µM. Also, at AChE, the “AChE Selectivity Index” value is 1,010.
As for `O=C(COc1ccccc1-c1nc(Cc2ccccc2)no1)NN1C(=O)c2ccccc2C1=O` [Compound 4b, 2-(2-(3-Benzyl-1,2,4-oxadiazol-5-yl)phenoxy)-N-(1,3-dioxoisoindolin-2-yl)acetamide], the IC50 in test [1] (setting [3]) amounted to 1790 ± 89.3 µM; in test [2] it was 2661 ± 26.3 µM; on AChE, 0.0293 ± 0.0013 µM; at MAO-B, 713 ± 22.3 µM; against MAO-A, 130 ± 16.9 µM.
Consider `O=C(COc1ccccc1-c1nc(-c2ccc(C(F)(F)F)cc2)no1)NN1C(=O)c2ccccc2C1=O` [Compound 4c, N-(1,3-Dioxoisoindolin-2-yl)-2-(2-(3-(4-(trifluoromethyl)phenyl)-1,2,4-oxadiazol-5-yl)phenoxy)acetamide], for which the IC50 was 1040 ± 88.9 µM in test [1] (setting [3]), 0.0377 ± 0.0027 µM on AChE, 117 ± 9.8 µM on MAO-B and 144 ± 22.4 µM at MAO-A. For the same compound, on AChE, the “AChE Selectivity Index” value was 673.
`O=C(COc1ccccc1-c1nc(-c2ccccc2)no1)NNC(=O)c1ccc2ccccc2n1` [Compound 5a, N’-(2-(2-(3-Phenyl-1,2,4-oxadiazol-5-yl)phenoxy)acetyl)quinoline-2-carbohydrazide]: the 50% inhibitory concentration (IC50) in test [1] (setting [3]) came to 2020 ± 111 µM; in test [2] it was 885 ± 22.9 µM; at AChE, 0.0475 ± 0.0028 µM; at MAO-B, 274 ± 21.1 µM.
With `O=C(COc1ccccc1-c1nc(Cc2ccccc2)no1)NNC(=O)c1ccc2ccccc2n1` [Compound 5b, N’-(2-(2-(3-Benzyl-1,2,4-oxadiazol-5-yl)phenoxy)acetyl)quinoline-2-carbohydrazide], the half-maximal inhibitory concentration (IC50) in test [1] (setting [3]) came out at 3560 ± 125 µM. On AChE, the “AChE Selectivity Index” value is reported as 627 and the IC50 is 0.0337 ± 0.00089 µM.
As for `O=C(COc1ccccc1-c1nc(-c2ccc(C(F)(F)F)cc2)no1)NNC(=O)c1ccc2ccccc2n1` [Compound 5c, N’-(2-(2-(3-(4-(Trifluoromethyl)phenyl)-1,2,4-oxadiazol-5-yl)phenoxy)acetyl)quinoline-2-carbohydrazide], the values for the IC50 (in test [1] (setting [3]); in test [2]; on AChE) were 521 ± 11.9 µM, 1140 ± 68.9 µM and 0.0792 ± 0.0061 µM, respectively. The “AChE Selectivity Index” value on AChE is 894.
As to `O=C(O)Cc1ccccc1Nc1c(Cl)cccc1Cl` [Diclofenac, reference compound], the concentration for half-maximal inhibition (IC50) in test [1] came out at 1120 ± 12.6 µM.
Take `O=c1c(O)c(-c2ccc(O)c(O)c2)oc2cc(O)cc(O)c12` [Quercetin, reference compound]: the half-inhibitory concentration (IC50) in test [2] was 491 ± 14.8 µM.
